Test results from patent publication US9006205B2, “Antisense oligonucleotides against neutral sphingomyelinase and neutral sphingomyelinase inhibitor GW4869 for degenerative neurological disorders” (Rush University Medical Center, priority 2011, dated 2015).
One block for each compound: values may come before it.

Tests used:
primary human astrocytes = assay: GFAP and iNOS double-labeling of primary human astrocytes stimulated with Aβ peptides; assay type: cell-based; details: peptide stimulation for 24 h
Protocol: In FIG. 5A, primary astrocytes were stimulated with fibrillar Aβ1-42, oligomeric Aβ1-42 and reverse peptide Aβ42-1 for 24 h followed by double-labeling of GFAP and iNOS. In FIG. 5B, primary human astrocytes seeded in inserts were stimulated with a combination of I μM of oligomeric Aβ1-42 and 10 ng/ml of IL-Iβ in serum free media. […] After 6 h, neuronal apoptosis was monitored by TUNEL. In FIG. 5C, TUNEL-positive cells were counted manually in four different images of each of three coverslips by three individuals blinded to the experiment. Values obtained from the control group (1) served as 100%, and data obtained from other three groups i.e. the oligomeric Aβ-activated astrocytes (OAA) group (2), the ASO-OAA group (3), and the ScO-OAA group (4) was calculated as percent of control accordingly. Results are mean+S.D. of three different experiments. ^ap<0.001 vs control; ^bp<0.001 vs OAA.

N-SMase [1] = target: T1, N-SMase (Homo sapiens, UniProt Q9NY59); assay: Assay of N-SMase activity in primary human neurons; assay type: cell-based
T1 construct: endogenous in cells; host or cells: primary human neurons
T1 sequence (Q9NY59 1-655): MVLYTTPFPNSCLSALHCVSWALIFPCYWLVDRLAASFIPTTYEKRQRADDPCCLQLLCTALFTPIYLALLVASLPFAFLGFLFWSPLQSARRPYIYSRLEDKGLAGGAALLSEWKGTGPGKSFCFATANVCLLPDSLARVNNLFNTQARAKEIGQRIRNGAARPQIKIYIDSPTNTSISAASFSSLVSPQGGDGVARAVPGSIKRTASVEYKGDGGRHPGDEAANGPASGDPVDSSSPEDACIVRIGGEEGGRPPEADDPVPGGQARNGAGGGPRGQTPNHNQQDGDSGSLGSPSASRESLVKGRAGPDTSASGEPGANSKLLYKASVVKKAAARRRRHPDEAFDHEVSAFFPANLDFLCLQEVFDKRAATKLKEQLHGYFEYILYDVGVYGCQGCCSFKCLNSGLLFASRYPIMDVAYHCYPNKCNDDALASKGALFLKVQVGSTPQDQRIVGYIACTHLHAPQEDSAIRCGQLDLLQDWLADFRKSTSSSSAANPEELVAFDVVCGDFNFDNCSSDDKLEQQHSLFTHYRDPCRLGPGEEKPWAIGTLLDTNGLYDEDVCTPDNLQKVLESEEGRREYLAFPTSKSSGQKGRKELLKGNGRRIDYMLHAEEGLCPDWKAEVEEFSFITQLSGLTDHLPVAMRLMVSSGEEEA
Protocol: (§1) Activities of SMase(s) were assayed as described by. Briefly, after treatment, the cells were washed with PBS, harvested in PBS, divided into two halves, and centrifuged. The fraction for N-SMase was resuspended in buffer A (100 mM Tris-HCl, pH 7.4, 0.1% Triton X-100, 1 mM EDTA, and protease inhibitors), and the cell suspension was sonicated and centrifuged at 500×g at 4° C. for 5 min. The supernatant was used as the enzyme source for N-SMase. The reaction mixture contained enzyme preparation in buffer A containing 5 nmol of [^14C] sphingomyelin, 5 nmol of phosphatidylserine, 5 mM dithiothreitol, and 5 mM MgC¾ in a final volume of 100 μl. Similarly, the fraction for A-SMase was resuspended in buffer B (100 mM sodium acetate, pH 5.0, 0.1% Triton X-100, and protease inhibitors). The cell suspension was sonicated and centrifuged. The supernatant was used as the source of A-SMase. The activity of A-SMase was measured in a 100-μl reaction mixture consisting of the enzyme preparation in buffer B and 5 nmol of [^14C] sphingomyelin. The enzyme reaction was initiated by the addition of 50 μl of substrate and stopped by the addition of 1.5 ml of chloroform:methanol (2:1, v/v) and 0.2 ml of water. After vortexing and phase separation, the aqueous phase was removed for counting.
In FIGS. 3A-3E, primary human astrocytes seeded in inserts were stimulated by the combination of Aβ and IL-Iβ as described above. After 24 h, media were removed and inserts were washed and placed on neurons that were pretreated with PTIO for 30 min. In FIG. 3A, after 1 h, activity of N-SMase was measured in total cell extracts of neurons as described above. After 18 h, neuronal viability was examined by the metabolism of MTT (FIG. 3B) and the release of LDH (FIG. 3C). Values obtained from the control group served as 100%, and data obtained in other groups were calculated as percent of control accordingly. Results are mean+S.D. of three different experiments. ^ap<0.001 vs control; ^bp<0.001 vs activated astrocytes. Primary human neurons were treated with 25 μM DETA-NONOate (a NO donor) and at different time points of treatment, activities of N-SMase (FIG. 3D) and A-SMase (FIG. 3E) were monitored. ^ap<0.001 vs control (0 h).

N-SMase [2] = assay: N-SMase activity in vivo in the cortex after microinjection; set-up: species or system C57/BL6 mice; details: pre-microinjection of 1 μg oligonucleotide 24 h before 1 μg fibrillar Aβ1-42
Protocol: as §1
(§2) Control mice received saline injection. At indicated time points, cortex was dissected out and divided into two halves—one half for measuring activities of N-SMase (FIG. 7B) and A-SMase (FIG. 7C) and the other for assaying ceramide (FIG. 7D). Control (saline—6 h) group served as 100%, and data from other groups were expressed as percentage of control. Results are mean+SD of five different mice (n=5). ^ap<0.05 vs saline—6 h.

[3] = system: neurons (NeuN-positive cells); assay: TUNEL/NeuN neuronal apoptosis in vivo in the cortex of Aβ-microinjected mice; details: 1 μg oligonucleotide 24 h before Aβ; 24 h after final microinjection
A-SMase = A-SMase activity in vivo in the cortex after microinjection; set-up: species or system C57/BL6 mice; details: pre-microinjection of 1 μg oligonucleotide 24 h before 1 μg fibrillar Aβ1-42
Protocol: as §1, §2

iNOS, GFAP and CD11b = assay: Immunofluorescence of iNOS, GFAP and CD11b in the cortex of Aβ-microinjected mice; assay type: in vivo, C57/BL6 mice; details: 1 μg oligonucleotide 24 h before Aβ; at both 6 h and 24 h of microinjection
Protocol: […], mice were perfused with 4% paraformaldehyde and their brains were processed for immunohistochemical studies. For double labeling of GFAP with iNOS, sections (6 μm) were incubated with polyclonal anti-GFAP (GFAP: 1000 dilution; Calbiochem) and anti-iNOS (iNOS: 1000 dilution; Calbiochem) for 24 h at 4° C. After three washes in PBST (15 min each), slides were further incubated with Cy5 and Cy2 (Jackson ImmunoResearch Laboratories, Inc.) secondary antibodies for 2 h at room temperature. For negative controls, a set of tissue sections was incubated under similar conditions without the primary antibodies. The samples were mounted and observed under a Bio-Rad MRC1024ES confocal laser scanning microscope.
After 6 h of Aβ microinjection, mice were perfused and double immunofluorescence for GFAP (green) and iNOS (red) (FIG. 8A) and CD 11b (green) and iNOS (red) (FIG. 8B) was performed.

primary human astroglia = assay: NO synthesis (nitrite, Griess reagent) in primary human astroglia; assay type: cell-based; details: astroglia preincubated 30 min with different concentrations of chemical inhibitor; nitrite after 24 h
Protocol: Synthesis of NO was determined by assay of culture supernatants for nitrite, a stable reaction product of NO with molecular oxygen, using Griess reagent as described.
After 24 h of stimulation, the concentration of nitrite was measured in supernatants (FIG. 4A) by Griess reagent. […] Cells were treated with ASO/ScO for 40 h followed by stimulation with the combination of fibrillar Aβ and IL-Iβ as above. After 6 h, the expression of iNOS mRNA was analyzed by both semi-quantitative RT-PCR (C) and quantitative real-time PCR (FIG. 4D). The expression of TNF-a, IL-6 and IL-Iβ mRNAs were analyzed by semi-quantitative RT-PCR (FIG. 4E). Results are mean±SD of three different experiments. ^ap<0.001 vs control; ^bp<0.001 vs (Aβ+IL-Iβ).

NF-κB = assay: EMSA of NF-κB DNA-binding activity in primary human astroglia; assay type: cell-based; details: chemical inhibitor, different concentrations, 30 min preincubation; 1 h of stimulation
primary human neurons [4] = assay: LDH release from neurons in astrocyte-neuron trans-well; assay type: cell-based
Protocol: (§3) Primary human astrocytes were grown to confluency on inserts. After 24 h of stimulation by the combination of Aβ (1 μM) and IL-Iβ (10 ng/ml), inserts were washed thrice with HBSS and then placed onto the wells containing primary human neurons. Therefore, in this trans-well model, although neurons and astrocytes face each other, they are separable and the effect of soluble factors released from activated astrocytes on neurons can be studied allowing analysis of neuronal and glial populations separately.
The activity of lactate dehydrogenase (LDH) was measured using the direct spectrophotometric assay using an assay kit from Sigma.
(§4) Primary human neurons were incubated with antisense (ASO) and scrambled oligonucleotides (ScO) against N-SMase (A) and A-SMase (FIG. 2B). After 48 h, neurons were analyzed for protein expression of N-SMase and A-SMase. In FIG. 2C, primary human astrocytes seeded in inserts were stimulated by the combination of Aβ and IL-1β as described above. […] After 6 h of treatment with activated astrocytes, apoptotic events in neurons were detected by TUNEL. In FIG. 2D, TUNEL-positive cells were counted manually in four different images of each of three coverslips by three individuals blinded to the experiment. In FIG. 2E, after 18 h of stimulation, cell viability was examined by the metabolism of MTT and the release of LDH. […] Values obtained from the control group served as 100%, and data obtained in other groups were calculated as percent of control accordingly. […]
In FIGS. 3A-3E, primary human astrocytes seeded in inserts were stimulated by the combination of Aβ and IL-Iβ as described above. […] In FIG. 3A, after 1 h, activity of N-SMase was measured in total cell extracts of neurons as described above. […] Values obtained from the control group served as 100%, and data obtained in other groups were calculated as percent of control accordingly. […] Primary human neurons were treated with 25 μM DETA-NONOate (a NO donor) and at different time points of treatment, activities of N-SMase (FIG. 3D) and A-SMase (FIG. 3E) were monitored. ^ap<0.001 vs control (0 h).

primary human neurons [5] = assay: MTT metabolism of neurons in astrocyte-neuron trans-well; assay type: cell-based
Protocol: as §3
Mitochondrial activity was measured with the 3-(4,5-dimethylthiazol-2-yl)-2,5-diphenyltetrazolium bromide (MTT) assay (Sigma). The cells were grown on 24-well culture plates with 500 μl of medium and treated with various reagents according to the experimental design. At the end of the treatment period, 300 μl of culture medium were removed from each well, and 20 μl of MTT solution (5 mg/ml) were added and incubated for 1 h.
as §4, with “experiment.” for “experiment. In FIG. 2E, after 18 h of stimulation, cell viability was examined by the metabolism of MTT and the release of LDH.”
In FIGS. 3A-3E, primary human astrocytes seeded in inserts were stimulated by the combination of Aβ and IL-Iβ as described above. […] In FIG. 3A, after 1 h, activity of N-SMase was measured in total cell extracts of neurons as described above. […] Values obtained from the control group served as 100%, and data obtained in other groups were calculated as percent of control accordingly.

[6] = neurons pretreated with PTIO for 30 min, after 18 h
[7] = neurons pretreated with oligonucleotide, 18 h of stimulation

Compound: oligomeric Aβ: Aβ1-42 prepared after incubation at 37° C. for 2 days
- astroglial iNOS protein and GFAP (primary human astrocytes): also induced iNOS and upregulated GFAP

- activation of N-SMase by NO donor alone (N-SMase [1]; primary human neurons, 25 μM, different time points): markedly induced
Compound: NCCN(CCN)/[N+]([O-])=N/O [DETA-NONOate]

Compound: 5′-CAGCGAGCCGGTCCACCAGCC-3′ (antisense CAGCGAGCCGGTCCACCAGCC; chemistry not given here) [mN-SMase ASO, ID; NO.: 16]
- Aβ1-42-induced activation of N-SMase in vivo in the cortex (N-SMase [2]): capable of suppressing
- Aβ-induced apoptotic death in vivo in the cortex (TUNEL/NeuN) [3]: blocked
- activity of A-SMase in fibrillar Aβ-microinjected cortex (A-SMase): did not influence
- expression of iNOS, GFAP and CD11b in vivo in the cortex of Aβ-microinjected mice (iNOS, GFAP and CD11b): dramatically reduced

- (Aβ+IL-1β)-induced DNA-binding activity of NF-κB (NF-κB): markedly suppressed
- activity of N-SMase (N-SMase [1]; activated astroglia-insulted human neurons, chemical inhibitors): strongly suppressed
Compound: O=C(/C=C/c1ccc(/C=C/C(=O)Nc2ccc(C3=NCCN3)cc2)cc1)Nc1ccc(C2=NCCN2)cc1 [GW4869]
- (Aβ+IL-1β)-induced production of NO (primary human astroglia): markedly suppressed

- ability of activated astrocytes to induce the activation of N-SMase (N-SMase [1]; neurons pretreated with PTIO for 30 min, measured after 1 h): reduced the ability
Compound: CC1(C)N([O])C(c2ccccc2)=[N+]([O-])C1(C)C [PTIO]
- ability of activated astrocytes to increase the release of LDH (primary human neurons [4]; [6]): reduced the ability
- ability of activated astrocytes to decrease MTT metabolism (primary human neurons [5]; [6]): reduced the ability

Compound: 5′-CACGCGTCCGACGCCGCACGA-3′ (DNA CACGCGTCCGACGCCGCACGA; chemistry not given here) [mN-SMase ScO, ScO against mouse N-SMase]
- Aβ-induced apoptotic death in vivo in the cortex (TUNEL/NeuN) [3]: did not ameliorate
- activity of A-SMase in fibrillar Aβ-microinjected cortex (A-SMase): did not influence
- expression of iNOS, GFAP and CD11b in vivo in the cortex of Aβ-microinjected mice (iNOS, GFAP and CD11b): had no effect

Compound: 5′- CACGCGTCCGACGCCGCACGA -3′ (DNA, all phosphorothioate, methylation of C not given here) [ScO against N-SMase, ID; NO.: 13]
- LDH release from neurons (primary human neurons [4]; [7]): showed no effect
- activated astroglia-mediated loss of MTT metabolism (primary human neurons [5]; [7]): showed no effect
